Laboratory results taken from PMC9861858, “Stereoselective Synthesis and Antiproliferative Activities of Tetrafunctional Diterpene Steviol Derivatives” (International Journal of Molecular Sciences, 2023).
Values after ≈ are worked out from the molar mass of the structure shown. “Also recorded” adds a separate entry of the source.

Assays:
HeLa cells = test: MTT antiproliferative assay, HeLa; assay type: cell-based, human; conditions: Homo sapiens, HeLa, 72 h, values <20% considered negligible, read-out: Growth inhibition (%) ± SEM, HeLa
Procedure: (§1) The in vitro antiproliferative activities of the synthesised aminotriols 5–18 against a panel of different human cancer cell lines of gynecological origin, including cervical (SiHA and HeLa), breast (MCF7 and MDA-MB-231), ovary (A2780) cancers and NIH/3T3 healthy fibroblasts, were assayed by the MTT method. Cisplatin, a clinically applied anticancer agent was used as a reference compound, and the results are summarised in Figure 3 and Table S1 in the Supplementary Materials.
(§2) The growth-inhibitory effects of the presented terpenes were determined by a standard MTT [3-(4,5-dimethylthiazol2-yl)-2,5-diphenyltetrazolium bromide] assay against […] human cancer cell lines (cervical cancer HeLa and SiHa cell lines, breast cancer MCF-7 and MDA-MB-231 and ovarian cancer A2780). Murine embryonal fibroblast cells (NIH/3T3) were used to determine selectivity. All cell lines were purchased from the European Collection of Cell Cultures (Salisbury, UK). The cells were cultivated in Eagle’s minimal essential medium supplemented with 10% fetal bovine serum, 1% non-essential amino acids, and 1% Antibiotic-Antimycotic complex (penicillin, streptomycin, amphotericin B) at 37 °C in a humidified atmosphere containing 5% CO2. All media and supplements were purchased from Lonza Group Ltd. (Basel, Switzerland). Cancer cells were seeded into 96-well plates (5000 cells/well) after an overnight incubation, and the test compounds were added at two different concentrations (10 μM and 30 μM) and incubated for another 72 h under cell-culturing conditions. Finally, 20 μL of a 5 mg/mL MTT solution was added to each well, and the contents were incubated for a further 4 h. The medium was removed, and the precipitated formazan crystals were dissolved in DMSO by shaking at 37 °C for 60 min. The absorbance was measured at 545 nm by using a microplate reader (SPECTROStar Nano, BMG Labtech, Offenburg, Germany). Clinically utilised anticancer agent cisplatin (Ebewe GmbH, Unterach, Austria) was included as a reference molecule. Calculations were performed using the GraphPad Prism 9 software (GraphPad Software Inc., San Diego, CA, USA).

SiHa cells = test: MTT antiproliferative assay, SiHa; assay type: cell-based, human; conditions: Homo sapiens, SiHa, 72 h, values <20% considered negligible, read-out: Growth inhibition (%) ± SEM, SiHa
Procedure: as §1, §2

MCF-7 cells = test: MTT antiproliferative assay, MCF-7; assay type: cell-based, human; conditions: for Antiproliferative effect / selectivity on MCF-7, in words: 10 and 30 μM; for inhibition at 10 µM / inhibition at 30 µM: Homo sapiens, 72 h, values <20% considered negligible, read-out: Growth inhibition (%) ± SEM, MCF-7; for inhibition at 10 µM: MCF7, 10 μM; for inhibition at 30 µM: MCF7, 30 μM
Procedure: as §1, §2

MDA-MB-231 cells = test: MTT antiproliferative assay, MDA-MB-231; assay type: cell-based, human; conditions: for Antiproliferative effect / selectivity on MDA-MB-231, in words: 10 and 30 μM; for inhibition at 10 µM / inhibition at 30 µM: Homo sapiens, 72 h, values <20% considered negligible, read-out: Growth inhibition (%) ± SEM, MDA-MB-231; for inhibition at 10 µM: MDA-MB-231, 10 μM; for inhibition at 30 µM: MDA-MB-231, 30 μM
Procedure: as §1, §2

A2780 cells = test: MTT antiproliferative assay, A2780; assay type: cell-based, human; conditions: for Antiproliferative effect on A2780, in words: 10 and 30 μM; for inhibition at 10 µM / inhibition at 30 µM: Homo sapiens, 72 h, values <20% considered negligible, read-out: Growth inhibition (%) ± SEM, A2780; for inhibition at 10 µM: A2780, 10 μM; for inhibition at 30 µM: A2780, 30 μM
Procedure: as §1, §2

NIH/3T3 fibroblasts = test: MTT assay on fibroblasts (selectivity); assay type: cell-based, murine; conditions: Mus musculus, 72 h, values <20% considered negligible, read-out: Growth inhibition (%) ± SEM, NIH/3T3; for inhibition at 10 µM: NIH3T3, 10 μM; for inhibition at 30 µM: NIH3T3, 30 μM
Procedure: as §1, §2

[1] = Kinetic aqueous solubility; assay type: physicochemical; conditions: phosphate buffered saline with 5% DMSO, aqueous with cosolvent or surfactant or cyclodextrin, kinetic from dmso stock; after 2 h, at 37 °C in PBS, pH 7.4, 5% DMSO; target concentration 500 μM; mean ± S.E.M, n = 3
Procedure: (§3) Filtrates and calibration solutions (5–500 μ M) of the kinetic solubility study and starting donor and acceptor solutions of the PAMPA-GI study were investigated by HPLC-DAD-MS. LC-MS analysis was performed using a Waters 2795 HPLC with a Waters 2487 DAD detector coupled with a Micromass Quattro Ultima TMPt quadrupol mass spectrometer equipped with an ESI source. Measurements were performed on a Waters XSelect C18 (150 × 4.6 mm; 3.5 μm) column with a […] eluent flow rate and the temperature set at 40 °C. The composition of eluent A was MilliQ water with 0.1% formic acid, and that of eluent B was an acetonitrile and MilliQ water mixture (95:5, v/v), also with 0.1% formic acid. The following linear gradient program was used: 0–6 min, 10–100% B; this was held for 3 min, then from 9.01 min on, back to the starting composition of 10% B–90% A. The injection volume was 10 μL for each sample. Chromatographic profiles were registered at dual wavelength, 220 and 240 nm. The mass spectrometer was used in negative ion mode for samples 2, 3 and 4b, and in positive ion mode for other samples. The operating parameters of the MS were: Mass range of m/z 150–700. Nitrogen gas flow rate was 350 L/h, temperature of 350 °C and pressure of 6 bar. The quadrupol temperature was 120 °C, and the capillary voltage was 2.5 kV. Fragmentor’s voltage of 60 V.
(§4) Intestinal (GI) permeability was determined by using an intestinal-specific parallel artificial membrane permeability assay (PAMPA-GI [36]]). […] All solutions were filtered by MultiScreen HTS Vacuum Manifold (Merck Ltd., Budapest, Hungary) after the incubation period. The target concentration was 500 μM for every sample investigated. The intestinal-specific effective permeability of the samples was determined by PAMPA-GI. To prepare starting solutions for a 96-well donor plate, 15 μLs of the 10 mM DMSO stock solution of investigation compounds and 285 μL pH 6.5 phosphate buffer solution were mixed. These solutions were left in a shaking incubator (300 rpm) at 25 °C for 1 h. Meanwhile, a 96-well acceptor plate was filled with 300 μL of pH 7.4 PBS buffer solution containing 5% DMSO. The intestinal-specific artificial membrane was prepared the following way: the hydrophobic filter material of the donor plate was coated with a mixture of phosphatidylcholine/cholesterol = 2:1 (5 μL, 4 % (w/v) in dodecane). After that, all donor wells were filled with 150 μL of the starting donor solutions, and they were carefully placed on the acceptor plate and incubated at 37 °C for 4 h. After the end of the incubation period the donor and acceptor plates were separated carefully. A total of 150 μL of the donor, acceptor and the starting donor solutions were sampled and analysed with HPLC-DAD-MS. The effective permeability and membrane retention of drugs were calculated using the following equations: Pe=−2.303/A·(t−τss)·1/1+rv·lg[−rv+(1+rv/1−MR)·]CD(t)/CD(0) MR=1−CD(t)/CD(0)−VA·CA(t)/VD·CD(0) where Pe is the effective permeability coefficient (cm/s), A is the filter area (0.3 cm^2), VD and VA are the volumes in the donor (0.15 cm^3) and acceptor phase (0.3 cm^3), t is the incubation time (s), τSS is the time to reach steady-state (s), CD(t) is the concentration of the compound in the donor phase at time point t (mol/cm^3), CD(0) is the concentration of the compound in the donor phase at time point zero (mol/cm^3), rv is the aqueous compartment volume ratio (VD/VA), MR is the membrane retention factor.

[2] = Intestinal-specific parallel artificial membrane permeability assay (PAMPA-GI); assay type: in vitro ADME; conditions: gradient pH system (pH donor 6.5 → pH acceptor 7.4) after 4 h, at 37 °C, mean ± S.E.M, n = 3; for Papp at 4 h, 500 µM: PAMPA, read-out: PAMPA-GI Pe
Procedure: as §3, §4

| solubility kinetic at 2 h [1] | Papp at 4 h, 500 µM [2] | PAMPA-GI MR (membrane retention) [2] | melting point | SMILES | inhibition at 10 µM (HeLa cells) | inhibition at 30 µM (HeLa cells) | inhibition at 10 µM (SiHa cells) | inhibition at 30 µM (SiHa cells) | Antiproliferative effect / selectivity on MCF-7, in words (MCF-7 cells) | inhibition at 10 µM (MCF-7 cells) | inhibition at 30 µM (MCF-7 cells) | Antiproliferative effect / selectivity on MDA-MB-231, in words (MDA-MB-231 cells) | inhibition at 10 µM (MDA-MB-231 cells) | inhibition at 30 µM (MDA-MB-231 cells) | Antiproliferative effect on A2780, in words (A2780 cells) | inhibition at 10 µM (A2780 cells) | inhibition at 30 µM (A2780 cells) | inhibition at 10 µM (NIH/3T3 fibroblasts) | inhibition at 30 µM (NIH/3T3 fibroblasts) |
| --- | --- | --- | --- | --- | --- | --- | --- | --- | --- | --- | --- | --- | --- | --- | --- | --- | --- | --- | --- |
| 131 ± 2.2 µM (≈ 63.8 µg/mL) | 0.58 ± 0.01 ×10⁻⁶ cm/s | 42.6 ± 3.9% | 157 to 161 °C | COC(=O)[C@]1(C)CCC[C@@]2(C)C3CC[C@]4(O)C[C@@]3(CCC21)[C@@H](O)[C@]4(O)CN[C@@H](C)c1ccccc1 (stereo partly drawn) [Compound 8, (4R,6aR,7R,8R,9S,11bS)-Methyl 7,8,9-Trihydroxy-4,11b-dimethyl-8-((((S)-1-phenylethyl)amino)methyl)tetradecahydro-6a,9-methanocyclohepta[a]naphthalene-4-carboxylate] | < 20% | 96.19 ± 0.25% | < 20% | 95.09 ± 0.69% | slightly weaker action | 74 ± 2.14% | 96.04 ± 0.32% | noteworthy selectivity | 84.3 ± 2.78% | 95.62 ± 0.92% | slightly weaker action | 59.9 ± 3.03% | 97.45 ± 0.36% | 58.8 ± 1.41% | 103.2 ± 0.33% |
| 11.9 ± 1.8 µM (≈ 6.38 µg/mL) | – | 92.6 ± 1.1% | 81 to 83 °C | COC(=O)[C@]1(C)CCC[C@@]2(C)C3CC[C@]4(O)C[C@@]3(CCC21)[C@@H](O)[C@]4(O)CN[C@@H](C)c1ccc2ccccc2c1 (stereo partly drawn) [Compound 13, (4R,6aR,7R,8R,9S,11bS)-Methyl 7,8,9-Trihydroxy-4,11b-dimethyl-8-((((S)-1-(naphthalen-2-yl)ethyl)amino)methyl)tetradecahydro-6a,9-methanocyclohepta[a]naphthalene-4-carboxylate] | 94.5 ± 1.24% | 94.9 ± 1.29% | 93.8 ± 1.81% | 93.77 ± 0.41% | – | 95.74 ± 0.64% | 95.44 ± 0.85% | – | 93.33 ± 0.29% | 93.21 ± 0.46% | – | 96.64 ± 0.35% | 96.79 ± 0.2% | 72 ± 1.81% | 90.5 ± 1.31% |
| 143 ± 26.8 µM (≈ 71.7 µg/mL) | 0.37 ± 0.11 ×10⁻⁶ cm/s | 6.1 ± 1.1% | 161 to 163 °C | COC(=O)[C@]1(C)CCC[C@@]2(C)C3CC[C@]4(O)C[C@@]3(CCC21)[C@@H](O)[C@]4(O)CNCc1ccc(OC)cc1 (stereo partly drawn) [Compound 10, (4R,6aR,7R,8R,9S,11bS)-Methyl 7,8,9-Trihydroxy-8-(((4-methoxybenzyl)amino)methyl)-4,11b-dimethyltetradecahydro-6a,9-methanocyclohepta[a]naphthalene-4-carboxylate] | 27.8 ± 1.05% | 96.06 ± 0.93% | 24.1 ± 1.39% | 94.64 ± 0.5% | higher selectivity; also recorded: performed best | 74.3 ± 2.62% | 95.66 ± 0.76% | – | 37.8 ± 2.27% | 93.42 ± 0.56% | – | < 20% | 96.79 ± 0.25% | < 20% | 90.9 ± 1.17% |
| 182 ± 3.2 µM (≈ 88.2 µg/mL) | 0.64 ± 0.07 ×10⁻⁶ cm/s | 28.8 ± 5.8% | 84 to 87 °C | COC(=O)[C@]1(C)CCC[C@@]2(C)C3CC[C@]4(O)C[C@@]3(CCC21)[C@@H](O)[C@]4(O)CN[C@H](C)c1ccccc1 (stereo partly drawn) [Compound 7, (4R,6aR,7R,8R,9S,11bS)-Methyl 7,8,9-Trihydroxy-4,11b-dimethyl-8-((((R)-1-phenylethyl)amino)methyl)tetradecahydro-6a,9-methanocyclohepta[a]naphthalene-4-carboxylate] | 33.7 ± 0.93% | 97.76 ± 0.25% | < 20% | 94.56 ± 0.54% | slightly weaker action | 62.8 ± 1.05% | 97.69 ± 0.38% | noteworthy selectivity | 88.05 ± 0.59% | 94.56 ± 0.63% | slightly weaker action | 52.9 ± 1.83% | 98.14 ± 0.36% | 35.8 ± 4.12% | 100.5 ± 0.37% |
